Key:
[1] = test system: short-term cultured hepatocytes; assay: Cumulative uptake in 3-hr (short-term) cultured hepatocyte monolayers, standard vs Ca2+-free buffer; format: in vitro ADME, rat; details: 3-hr cultured hepatocytes
Description: Hepatocytes were isolated with a two-step perfusion method. Briefly, rats were anesthetized with ketamine and xylazine (60 and 12mg/kg i.p., respectively) prior to portal vein cannulation. The liver was perfused in situ with oxygenated Ca^2+-free Krebs-Henseleit bicarbonate buffer containing collagenase type 1 (0.5 mg/ml) for 10 min. The hepatic capsule was removed with forceps. The hepatocytes were released by shaking the liver gently in 100 ml DMEM.
The released cells were filtered through a sterile nylon mesh (70-μm). The hepatocyte suspensions were centrifuged at 50 xg for 3 min. The cell pellet was resuspended in 25 ml DMEM and an equal volume of 90% isotonic polyvinylpyrrolidone-coated silica colloid centrifugation medium (pH 7.4) sold under the registered trademark PERCOLL® by Pharmacia, Inc. of Piscataway, N.J. The resulting cell suspension was centrifuged at about 70 to about 150 xg for 5 min. The pellet was resuspended in 50 ml DMEM and the cell suspensions were combined into one tube followed by centrifugation at 50 xg for 3 min. Hepatocyte viability was determined by trypan blue exclusion. Only those hepatocyte preparations with viability greater than 90% were utilized for further studies.
Hepatocyte suspensions were prepared with DMEM containing 5% fetal calf serum, 1 μM dexamethasone and 4 mg/L insulin. Hepatocyte suspensions were added to the precoated dishes at a density of about 2-3×10^6 cells/60-mm dish. Approximately 1 hr after plating the cells, the medium was aspirated and 3-ml fresh DMEM was added. For transport studies, hepatocytes that had been seeded for 3-5 hr without collagen overlay were defined as 3-hr or short-term cultured hepatocytes.
(§1) Hepatocytes cultured in a collagen-sandwich configuration were incubated in 3 ml standard buffer or Ca^2+-free buffer at 37° C. for 10 min. After removing the incubation buffer, uptake was initiated by addition of 3 ml standard buffer containing substrate to each dish. After incubation for designated times, cumulative uptake was terminated by aspirating the incubation solution and rinsing 4 times with 3 ml ice-cold standard buffer to remove extracellular substrate. After washing, 2 ml of 1% Triton X-100 solution was added to culture dishes, and the cells were lysed by shaking the dish on a shaker for 20 min at room temperature. An aliquot (1 ml) of lysate was analyzed by liquid scintillation spectrometry. Bio-Rad DC Protein Assay Kit (Bio-Rad Laboratories, Hercules, Calif.) was used to determine the protein concentration in the culture extracts using bovine serum albumin as standard. […] All values for substrate uptake into cell monolayers were corrected for nonspecific binding to the collagen by subtracting the substrate uptake determined in the appropriate control dishes in the absence of cells as described previously.
(§2) Uptake data were normalized to the protein content and expressed as mean±SD from 3-4 separate preparations of hepatocytes. Statistical differences between mean values for the 10-min cumulative substrate uptake in the presence and absence of Ca^2+ were determined by the use of the well-known Student's t-test. A P value of <0.05 was considered significant.

[2] = test system: sandwich-cultured hepatocytes; assay: Cumulative uptake, Biliary Excretion Index and in vitro biliary clearance in 96-hr sandwich-cultured hepatocytes; format: in vitro ADME, rat
Description: To prepare sandwich-cultured hepatocytes, neutralized collagen solution (0.1 ml, about 1.5 to about 3.0 mg/ml, pH 7.4) was added to the monolayers 24 hr after the cells were seeded. […] Medium was changed on a daily basis until the fourth day after the cells were seeded. These hepatocytes were referred to as 96-hr or long-term cultured hepatocytes.
as §1, §2
Biliary excretion of substrates in the monolayers was quantitatively assessed by the Biliary Excretion Index based on Equation 3:
[formula] where Uptakestandard and Uptake Ca^2+-free represent the cumulative uptake of substrate over a 10-min interval in the hepatocyte monolayers pre-incubated in standard buffer and in Ca^2+-free buffer, respectively.
Biliary clearance in the sandwich-cultured hepatocytes, ClB(culture) (ml/min/kg per body weight), was calculated according to Equation 4:
[formula] where Timeincubation was 10 min and Concentrationmedium represented the initial substrate concentration in the incubation medium. In some embodiments, a biliary clearance value can be calculated as the ratio of the mass in the bile canaliculi and the area under the curve (AUC) in culture medium, wherein the AUC represents the integral of candidate compound (e.g. xenobiotic concentration) in the medium from time 0 to time T (time can be measure in any desired units, and is usually measured in minutes). Indeed, the term AUC can refer to the following equation: […]

[3] = Biliary excretion in bile duct cannulated rats after administration of [14C]264W94 / [14C]2169W94; format: in vivo, rat
Description: Male Wistar rats (250-280 g) from Charles River Laboratory (Raleigh, N.C.) were used as liver donors. Rats were housed individually in stainless-steel cages in a constant alternating 12-hr light and dark cycle at least 1 week before the study was performed, and were fed ad libitum until use. Bile duct cannulated rats (200-250 g) were obtained from Charles River (Raleigh, N.C.). The Institutional Animal Care and Use Committee at the University of North Carolina at Chapel Hill, Chapel Hill, N.C., approved all procedures.
[^14C]264W94 was formulated as a solution in a mixture of sterile water/polypropylene glycol 400/ethanol (2:1:1 v/v/v) at a concentration of 0.125 mg/mL. Following collection of pre-dose bile, [^14C]264W94 solution was administrated by caudal vein injection (0.1 mg/kg). For the 2169W94 studies, [^14C]2169W94 was prepared as a suspension at a concentration of 0.1 mg/mL in 0.5% (w/v) methylcellulose in water. Following collection of pre-dose bile, [^14C]2169W94 suspension was administrated by gavage (1.0 mg/kg). All rats were placed into individual plastic metabolism cages that allowed the rats unrestrained movement. Bile was collected into polypropylene containers surrounded by ice. For the 264W94 studies, the bile container was changed at 8 and 24 hours after the dose. […] Bile samples were stored at −20° C. until analysis.
Aliquots of cell lysate or bile samples containing 264W94 or 2169W94 were mixed with 2-fold volumes of ice-chilled acetonitrile, and centrifuged to remove precipitated proteins. The supernatant was evaporated under nitrogen at room temperature, and reconstituted in 100 μL of a 70/30 mixture of 50 mM ammonium acetate/acetonitrile/trifluoroacetic acid (95:5:0.1 v:v:v) and acetonitrile. […]
Radiocarbon that eluted from the HPLC was quantified with an on-line radioactivity detector (RADIOMATIC FLO-ONE/BETA™ Radio-Chromatography Detector Series 500 TR Series, Packard Instrument Co.). […] The concentration of the three components was determined by normalizing the eluted radioactivity in each peak to the total injected radioactivity.

[4] = test system: sandwich-cultured hepatocytes; assay: HPLC analysis of 10-min cell lysate of 96-hr sandwich-cultured hepatocytes; format: in vitro ADME, rat; details: 96-hr hepatocytes incubated with 3 μM [14C]264W94, 10 min
Description: Aliquots of cell lysate or bile samples containing 264W94 or 2169W94 were mixed with 2-fold volumes of ice-chilled acetonitrile, and centrifuged to remove precipitated proteins. The supernatant was evaporated under nitrogen at room temperature, and reconstituted in 100 μL of a 70/30 mixture of 50 mM ammonium acetate/acetonitrile/trifluoroacetic acid (95:5:0.1 v:v:v) and acetonitrile. The sample extracts were injected onto a WATERS™ […]™ C18 column (3.9×150 mm) and eluted by a 85/15 mixture of 50 mM ammonium acetate (pH 4.0) and acetonitrile; the percentage of acetonitrile was increased by a WATERS™ 600E System Controller to 55% over a period of 20 minutes, and then to 100% during the next 10 minutes.
Radiocarbon that eluted from the HPLC was quantified with an on-line radioactivity detector (RADIOMATIC FLO-ONE/BETA™ Radio-Chromatography Detector Series 500 TR Series, Packard Instrument Co.). The peaks of 264W94, 2169W94, and 2169W94 glucuronide were identified by comparing with purified standard compound. Under these conditions, baseline separation of these three components was achieved. The concentration of the three components was determined by normalizing the eluted radioactivity in each peak to the total injected radioactivity. […]

[5] = test system: hepatic cytochrome p450 isozymes; details: Silver et al. 1996; cited from earlier work

## CCCC[C@]1(CC)CS(=O)(=O)c2cc(OC)c(OC)cc2[C@@H](c2ccccc2)N1 [264W94, (3R, 5R)-3-butyl-3-ethyl-2,3,4,5-tetrahydro-7,8-dimethoxy-5-phenyl-1,4-benzothiazepine-1,1-dioxide]
[1]
  cumulative uptake in standard buffer compared to Ca2+-free buffer: similar
[2]; 96-hr cultured hepatocytes
  cumulative uptake in standard buffer compared to Ca2+-free buffer: not significantly different
[2]; 96-hr sandwich-cultured hepatocytes
  biliary excretion in long-term sandwich-cultured hepatocytes (in words): lack of biliary excretion
[3]; in vivo
  biliary excretion in rats (in words): negligible biliary excretion
[3]; rats, i.v. [14C]264W94 0.24 μmol/kg
  detection in bile in 24 hr: neither 264W94 nor 2169W94 was detected
[3]; rats, oral administration 2.4 μmol/kg, in 8 hr, n=2
  total administered radioactivity recovered in bile: 66.4%
[4]
  share of total radioactivity in cell lysate: 73.0%
[5]
  cytochrome p450 isozyme primarily involved in the metabolism: CYP3A4
